This is an account of results in patent US10106578B2, “Melanocortin-1 receptor-specific linear peptides” (Palatin Technologies, Inc., priority 2012, dated 2018).

Experiment [1] addresses T1, hMCR-4 (Homo sapiens, UniProt P32245).
T1 construct: expressed in transfected cells; host or cells: HEK-293 cells (membrane homogenates)
The experiment in a line: Competitive inhibition binding assay using [I125]-NDP-α-MSH, hMCR-4 membranes. The following applies: HEK-293 membranes, recombinant human MCR-4, [I125]-NDP-α-MSH; read-out: MC-4 Ki (average). Here is the method: (§1) A competitive inhibition binding assay was performed using membrane homogenates prepared from HEK-293 cells that express recombinant hMCR-1a or hMCR-4 (in each instance where the h prefix refers to human), or alternatively membrane homogenates from B16-F10 mouse melanoma cells containing endogenous murine MCR-1. In the examples that follow, all MCR-1 and MCR-4 values are for human recombinant receptors, unless otherwise noted. Assays were performed in 96 well polypropylene round-bottom plates (VWR catalog number 12777-030). Membrane homogenates were incubated with 0.1 nM [I^125]-NDP-α-MSH (Perkin Elmer) and increasing concentrations of test peptides of the present invention in buffer containing 25 mM HEPES buffer (pH 7.5) with 100 mM NaCl, 2 mM CaCl2, 2 mM MgCl2, 0.3 mM 1,10-phenanthroline, and 0.2% bovine serum albumin. After incubation for 90 minutes at 37° C., the assay mixture was filtered onto GF/B Unifilter plates (Perkin-Elmer catalog number 6005177) and washed with 3 mL of ice-cold buffer per well. Filters were air dried and 35 μL of scintillation cocktail added to each well. Plates were counted in a Microbeta counter for bound radioactivity. Non-specific binding was measured by inhibition of binding of [I^125]-NDP-α-MSH in the presence of 1 μM NDP-α-MSH. Maximal specific binding (100%) was defined as the difference in radioactivity (cpm) bound to cell membranes in the absence and presence of 1 μM NDP-α-MSH. Each assay was conducted in duplicate and the actual mean values are described, with results less than 0% reported as 0%. Ki values for peptides of the present invention were determined using Graph-Pad PRISM® curve-fitting software.
(§2) Peptides of the following structures were synthesized and purified as described in Section 5 above, with the resulting peptide having the structure depicted. After synthesis and purification, the foregoing peptide was tested as described in Section 8 above, and average MCR-1 and MCR-4 Ki values determined as indicated. All Ki values were determined using [I^125]-NDP-α-MSH. All results are expressed in nM except for Emax values, which are percentage values.

The target in experiment [2] is T2, hMCR-1a (Homo sapiens, UniProt Q01726).
T2 construct: expressed in transfected cells; host or cells: HEK-293 cells (membrane homogenates)
T2 sequence (Q01726 whole entry): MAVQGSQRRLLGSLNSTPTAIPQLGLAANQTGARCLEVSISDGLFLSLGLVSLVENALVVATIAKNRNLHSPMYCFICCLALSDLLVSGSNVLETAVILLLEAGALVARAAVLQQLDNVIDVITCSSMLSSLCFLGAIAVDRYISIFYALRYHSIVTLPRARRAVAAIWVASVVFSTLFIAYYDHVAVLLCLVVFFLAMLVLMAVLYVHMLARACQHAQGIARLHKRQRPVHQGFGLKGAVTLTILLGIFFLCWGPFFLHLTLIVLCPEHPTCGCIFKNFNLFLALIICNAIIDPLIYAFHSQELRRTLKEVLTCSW
The experiment is described as follows: Competitive inhibition binding assay using [I125]-NDP-α-MSH, hMCR-1a membranes. The following applies: HEK-293 membranes, recombinant human MCR-1, [I125]-NDP-α-MSH; read-out: MC-1 Ki (average). Here is the method: as §1, §2

In experiment [3] the target is T3, hMCR-1 (Homo sapiens, UniProt Q01726).
T3 construct: endogenous in cells; host or cells: HBL human melanoma cell line
T3 sequence (Q01726 whole entry): as above
The experiment is described as follows: Assay for agonist activity: cAMP accumulation in HBL human melanoma cells. Type of experiment: cell-based. The following applies: for Emax: compared to reference agonist NDP-α-MSH, read-out: MC-1 Emax (average; cAMP HBL); for EC50: read-out: MC-1 EC50 (average; cAMP HBL).
From the text: Accumulation of intracellular cAMP was examined as a measure of the ability of the peptides of the present invention to elicit a functional response in a human melanoma cell line, HBL, that express hMCR-1 (see Kang, L., et al., “A selective small molecule agonist of melanocortin-1 receptor inhibits lipopolysaccharide-induced cytokine accumulation and leukocyte infiltration in mice,” J. Leuk. Biol. 80:897-904 (2006)) or HEK-293 cells that express hMCR-4. Confluent HBL cells that express hMCR-1 or HEK-293 cells that express recombinant hMCR-4 were detached from culture plates by incubation in enzyme-free cell dissociation buffer. Dispersed cells were suspended in Earle's Balanced Salt Solution containing 10 mM HEPES (pH 7.5), 1 mM MgCl2, 1 mM glutamine, 0.5% albumin and 0.3 mM 3-isobutyl-1-methyl-xanthine (IBMX), a phosphodiesterase inhibitor. The cells were plated in 96-well plates at a density of 0.4×10^5 cells per well for HBL cells and 0.5×10^5 cells per well for HEK-293 cells and pre-incubated for 10 minutes. Cells were exposed for 15 minutes at 37° C. to peptides of the present invention dissolved in DMSO (final DMSO concentration of 1%) at a concentration range of 0.05-5000 nM in a total assay volume of 200 μL. NDP-α-MSH was used as the reference agonist. cAMP levels were determined by an HTRF® cAMP cell-based assay system from Cisbio Bioassays utilizing cryptate-labeled anti-cAMP and d2-labeled cAMP, with plates read on a Perkin-Elmer Victor plate reader at […]. Data analysis was performed by nonlinear regression analysis with Graph-Pad PRISM® software. Maximum efficacy (Emax) values were determined for each test peptide of the present invention, compared to that achieved by the reference melanocortin agonist NDP-α-MSH.
as §2
(Changes in cAMP serve as a functional read-out for many G protein-coupled receptors.)

Where a SMILES comes first, the peptide text is derived from it. [ ]: non-standard residue; d: D form. Nle = CCCC[C@H](N)C(=O)O; Orn = NCCC[C@H](N)C(=O)O

T1 sequence (P32245 whole entry): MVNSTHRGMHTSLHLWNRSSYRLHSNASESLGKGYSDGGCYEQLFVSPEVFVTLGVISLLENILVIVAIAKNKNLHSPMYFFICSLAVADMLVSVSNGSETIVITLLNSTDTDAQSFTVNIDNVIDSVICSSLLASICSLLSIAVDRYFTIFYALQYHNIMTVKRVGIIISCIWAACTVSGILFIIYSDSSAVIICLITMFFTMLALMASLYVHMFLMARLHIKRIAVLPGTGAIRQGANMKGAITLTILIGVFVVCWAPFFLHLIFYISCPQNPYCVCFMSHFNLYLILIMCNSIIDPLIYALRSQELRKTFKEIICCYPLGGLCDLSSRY

In general, Ki refers to a dissociation constant, usually derived from enzyme kinetics or from competition with a known ligand. In general, Emax refers to the maximal effect, on the per cent scale that the assay sets. As for `CCCC[C@H](NC(C)=O)C(=O)N[C@@H](C)C(=O)N[C@@H](Cc1c[nH]cn1)C(=O)N[C@H](Cc1ccccc1)C(=O)N[C@@H](CCCNC(=N)N)C(=O)N[C@@H](C)C(=O)N[C@H](Cc1c[nH]c2ccccc12)C(N)=O` [Example 9.9, Ac-Nle-Ala-His-D-Phe-Arg-Ala-D-Trp-NH2] (Ac-[Nle]AH[dF]RA[dW]-NH2), the Ki in experiment [1] stood at 215 nM; in experiment [2] it was 7 nM. In addition, the Emax in experiment [3] came out at 70%.

For the molecule `CCCC[C@H](NC(C)=O)C(=O)N[C@@H](C)C(=O)N[C@H](Cc1ccccc1)C(=O)N[C@@H](CCCNC(=N)N)C(=O)N[C@@H](C)C(=O)N[C@@H](Cc1c[nH]c2ccccc12)C(N)=O` [Example 9.10, Ac-Nle-Ala-D-Phe-Arg-Ala-Trp-NH2] (Ac-[Nle]A[dF]RAW-NH2), the Emax in experiment [3] amounted to 85%.

What is called EC50 is the midpoint of the concentration-response curve. Turning to `CCCC[C@H](NC(C)=O)C(=O)N[C@@H](C)C(=O)N[C@@H](Cc1c[nH]cn1)C(=O)N[C@H](Cc1ccccc1)C(=O)N[C@@H](CCCNC(=N)N)C(=O)N1CCC[C@@H]1C(=O)N[C@H](Cc1c[nH]c2ccccc12)C(N)=O` [Example 9.12, Ac-Nle-Ala-His-D-Phe-Arg-D-Pro-D-Trp-NH2] (Ac-[Nle]AH[dF]R[dP][dW]-NH2), the Ki in experiment [2] was determined as 20 nM. In experiment [3], the Emax was 72% and the EC50 worked out at 2 nM.

As to `CCCC[C@H](NC(C)=O)C(=O)N[C@@H](C)C(=O)N[C@@H](Cc1c[nH]cn1)C(=O)N[C@H](Cc1ccccc1)C(=O)N[C@@H](CCCNC(=N)N)C(=O)N[C@@H](C)C(=O)N[C@@H](Cc1c[nH]c2ccccc12)C(=O)O` [Example 9.14, Ac-Nle-Ala-His-D-Phe-Arg-Ala-Trp-OH] (Ac-[Nle]AH[dF]RAW-OH), the Ki in experiment [2] is 6 nM. For the same molecule, in experiment [3], the Emax worked out at 73%.

Regarding `CCCC[C@H](NC(C)=O)C(=O)N[C@@H](Cc1c[nH]cn1)C(=O)N[C@H](Cc1ccccc1)C(=O)N[C@@H](CCCNC(=N)N)C(=O)N[C@@H](C)C(=O)N[C@@H](Cc1c[nH]c2ccccc12)C(N)=O` [Example 9.3, Ac-Nle-His-D-Phe-Arg-Ala-Trp-NH2] (Ac-[Nle]H[dF]RAW-NH2), in experiment [3], the maximal response (Emax) came out at 95% and the EC50 worked out at 1 nM.

For `CCCC[C@H](NC(C)=O)C(=O)N[C@@H](C)C(=O)N[C@@H](Cc1c[nH]cn1)C(=O)N[C@H](Cc1ccccc1)C(=O)N[C@@H](C)C(=O)N[C@@H](C)C(=O)N[C@@H](Cc1c[nH]c2ccccc12)C(N)=O` [Example 9.16, Ac-Nle-Ala-His-D-Phe-Ala-Ala-Trp-NH2] (Ac-[Nle]AH[dF]AAW-NH2), in experiment [3], the Emax worked out at 99% and the concentration giving a half-maximal response (EC50) worked out at 4 nM.

`CCCC[C@H](NC(C)=O)C(=O)N[C@@H](C)C(=O)N[C@@H](Cc1c[nH]cn1)C(=O)N[C@@H](Cc1ccccc1)C(=O)N[C@@H](CCCNC(=N)N)C(=O)N[C@@H](C)C(=O)N[C@@H](Cc1c[nH]c2ccccc12)C(N)=O` [Example 9.6, Ac-Nle-Ala-His-Phe-Arg-Ala-Trp-NH2] (Ac-[Nle]AHFRAW-NH2): in experiment [3], the Emax was determined as 72% and the EC50 is 4 nM.

As for `CCCC[C@H](NC(C)=O)C(=O)N[C@@H](C)C(=O)N[C@@H](Cc1c[nH]cn1)C(=O)N[C@H](Cc1ccccc1)C(=O)N[C@@H](CCCNC(=N)N)C(=O)N1CCC[C@H]1C(=O)N[C@@H](Cc1c[nH]c2ccccc12)C(N)=O` [Example 9.2, Ac-Nle-Ala-His-D-Phe-Arg-Pro-Trp-NH2] (Ac-[Nle]AH[dF]RPW-NH2), the Emax in experiment [3] is 78%.

`CCCC[C@H](NC(C)=O)C(=O)N[C@@H](C)C(=O)N[C@@H](CCCN)C(=O)N[C@H](Cc1ccccc1)C(=O)N[C@@H](CCCNC(=N)N)C(=O)N[C@@H](C)C(=O)N[C@@H](Cc1c[nH]c2ccccc12)C(N)=O` [Example 9.21, Ac-Nle-Ala-Orn-D-Phe-Arg-Ala-Trp-NH2] (Ac-[Nle]A[Orn][dF]RAW-NH2): the results for the Ki in experiment [1] and in experiment [2] were 7580 nM and 0.3 nM, respectively. In addition, the Emax in experiment [3] came to 107%.

For the molecule `CCCC[C@H](NC(C)=O)C(=O)N[C@@H](C)C(=O)N[C@@H](Cc1ccccc1)C(=O)N[C@H](Cc1ccccc1)C(=O)N[C@@H](CCCNC(=N)N)C(=O)N[C@@H](C)C(=O)N[C@@H](Cc1c[nH]c2ccccc12)C(N)=O` [Example 9.19, Ac-Nle-Ala-Phe-D-Phe-Arg-Ala-Trp-NH2] (Ac-[Nle]AF[dF]RAW-NH2), the Ki in experiment [2] is 20 nM. In addition, in experiment [3], the Emax was 99% and the EC50 is 6 nM.

Regarding `CCCC[C@H](NC(C)=O)C(=O)N[C@@H](C)C(=O)N[C@@H](CCCNC(=N)N)C(=O)N[C@H](Cc1ccccc1)C(=O)N[C@@H](CCCNC(=N)N)C(=O)N[C@@H](C)C(=O)N[C@@H](Cc1c[nH]c2ccccc12)C(N)=O` [Example 9.18, Ac-Nle-Ala-Arg-D-Phe-Arg-Ala-Trp-NH2] (Ac-[Nle]AR[dF]RAW-NH2), the Emax in experiment [3] amounted to 106%.

As for `CCCC[C@H](NC(C)=O)C(=O)N[C@@H](C)C(=O)N[C@@H](CCCCN)C(=O)N[C@H](Cc1ccccc1)C(=O)N[C@@H](CCCNC(=N)N)C(=O)N[C@@H](C)C(=O)N[C@@H](Cc1c[nH]c2ccccc12)C(N)=O` [Example 9.20, Ac-Nle-Ala-Lys-D-Phe-Arg-Ala-Trp-NH2] (Ac-[Nle]AK[dF]RAW-NH2), in experiment [2], the Ki turned out to be 4 nM. In experiment [3], the Emax worked out at 107%.

For the molecule `CCCC[C@H](NC(C)=O)C(=O)N[C@@H](C)C(=O)N[C@@H](Cc1c[nH]cn1)C(=O)N[C@@H](Cc1ccccc1)C(=O)N[C@@H](CCCNC(=N)N)C(=O)NCC(=O)N[C@@H](Cc1c[nH]c2ccccc12)C(N)=O` [Example 9.7, Ac-Nle-Ala-His-Phe-Arg-Gly-Trp-NH2] (Ac-[Nle]AHFRGW-NH2), in experiment [3], the Emax came to 75%.

Consider `CCCC[C@H](NC(C)=O)C(=O)N[C@@H](C)C(=O)N[C@@H](Cc1c[nH]cn1)C(=O)N[C@H](Cc1ccccc1)C(=O)N[C@@H](CCCNC(=N)N)C(=O)NCC(=O)N[C@@H](Cc1c[nH]c2ccccc12)C(N)=O` [Example 9.5, Ac-Nle-Ala-His-D-Phe-Arg-Gly-Trp-NH2] (Ac-[Nle]AH[dF]RGW-NH2), for which, in experiment [3], the Emax is 90%.

`CCCC[C@H](NC(C)=O)C(=O)N[C@@H](C)C(=O)N[C@@H](C)C(=O)N[C@H](Cc1ccccc1)C(=O)N[C@@H](CCCNC(=N)N)C(=O)N[C@@H](C)C(=O)N[C@@H](Cc1c[nH]c2ccccc12)C(N)=O` [Example 9.17, Ac-Nle-Ala-Ala-D-Phe-Arg-Ala-Trp-NH2] (Ac-[Nle]AA[dF]RAW-NH2): the Emax in experiment [3] came to 94%.

Take `CCCC[C@H](NC(C)=O)C(=O)N[C@@H](Cc1c[nH]cn1)C(=O)N[C@@H](Cc1ccccc1)C(=O)N[C@@H](CCCNC(=N)N)C(=O)N[C@@H](C)C(=O)N[C@@H](Cc1c[nH]c2ccccc12)C(N)=O` [Example 9.8, Ac-Nle-His-Phe-Arg-Ala-Trp-NH2] (Ac-[Nle]HFRAW-NH2): in experiment [3], the Emax was found to be 55%.

In the case of `CCCC[C@H](NC(C)=O)C(=O)N[C@@H](C)C(=O)N[C@@H](Cc1c[nH]cn1)C(=O)N[C@H](Cc1ccccc1)C(=O)N[C@@H](CCCNC(=N)N)C(=O)N[C@@H](C)C(=O)N[C@@H](Cc1c[nH]c2ccccc12)C(N)=O` [Example 9.1, Ac-Nle-Ala-His-D-Phe-Arg-Ala-Trp-NH2] (Ac-[Nle]AH[dF]RAW-NH2), the Emax in experiment [3] came out at 96%.
